Experimental data published in patent publication US20100144853A1, “NOVEL COMBINED ADMINISTRATION” (priority 2008, published 2010).

Experiments:
Assay type in all cases: in vitro ADME
[1] = tested on: Lipase from Hog Pancreas; assay: Stability of COMPOUND A with Lipase, with and without COMPOUND B (Example 1); conditions: 0.55 mg/mL (11 U/mL) Lipase
Experimental: (a) FeSSIF (Fed State Simulated Intestinal Fluid) and phosphate buffered saline solution:
(b) Stock A=drug solution (0.5 mg/mL):
5 mg of thioisobutyric acid S-(2-{[1-(2-ethyl-butyl)-cyclohexanecarbonyl]-amino}-phenyl)ester (COMPOUND A) were dissolved in 50 μL ethanol and 950 μL mixed micelles Soybean lecithin/Sodium glycocholate (158/97 mg/mL) in water were added. One part of the mixture was diluted with 9 parts of phosphate buffered saline solution at pH 6.5.
(c) Stock B=esterase inhibitor solution (1.0 mg/mL)
5 mg 1-(3-hexyl-4-oxo-oxetan-2-yl)tridecan-2-yl 2-formyl-amino-4-methyl-pentanoate (COMPOUND B) were dissolved in 250 μL ethanol. 4.75 mL mixed micelles soybean lecithin/sodium glycocholate (30/80.6 mg/mL) were added to give a solution of 1 mg/mL COMPOUND B.
(d) Stock C=Lipase in phosphate buffered saline solution (PBS) pH 6.5 (example given at 24 mg/mL, with a final enzyme activity of about 450 U/mL)
240 mg Lipase (Lipase from Hog Pancreas, 20.6 U/mg Lipase, CAS No. 9001-62-1, Fluka, Art. No. 62300) were weighed into a vial and dissolved by stirring in 10 mL phosphate buffered saline solution pH 6.5. Any undissolved material was removed by centrifugation during 5 min at 5000 rpm. The supernatant was used for the experiments and diluted with PBS to obtain the Lipase at the final concentration of 0.55 mg/mL.
[…] To this, 200 μL of drug solution (stock A) were injected at time zero. The mixture was incubated at 37° C., while mixing gently with a rotating shaker at about 2 rpm. At regular intervals 200 μL samples were taken and diluted immediately with 600 μL of isopropanol. The combined solution/suspension was centrifuged during 5 min at 3000 rpm and the concentration of COMPOUND A as well as its potential degradation products were determined in the supernatant by HPLC analysis.
To obtain the value at time zero, 600 μL of isopropanol were added to 180 μL of a 0.55 mg/mL Lipase in a phosphate buffered saline solution to inhibit the enzymes followed by the addition of 20 μL of drug solution (stock A).

[2] = tested on: Lipase from Hog Pancreas; assay: Stability of COMPOUND A with Lipase, Procedure C (premix of COMPOUND A and Lipase, then COMPOUND B); conditions: 0.55 mg/mL Lipase
Experimental: Procedure C (Premix of COMPOUND A and Lipase, Followed by Addition of COMPOUND B): Remark: Final COMPOUND B concentration: 3 μg/ml 220 μL of drug solution (stock A) and 220 μL of FeSSIF concentrate (Lecithin 37.5 mM and Sodium taurocholate 150 mM) were mixed. At time zero the reaction was started by addition of 1700 μl of Lipase in phosphate buffered saline solution (from stock C to obtain a final enzyme concentration of 0.55 mg/mL). The mixture was incubated at 37° C. and after 5 min, a 200 μL sample was taken for HPLC analysis. Then 60 μL of COMPOUND B solution (stock B) previously diluted 1:10 in phosphate buffered saline solution (corresponds to 100 μg/mL COMPOUND B) was added and as a function of time, samples of 200 μL were taken, diluted immediately with 600 μL of isopropanol and centrifuged for 5 min at 3000 rpm. The supernatant was analyzed by HPLC. 1700 μl of Lipase in phosphate buffered saline solution (from stock C to obtain a final enzyme concentration of 0.55 mg/mL) were mixed with 220 μL of FeSSIF concentrate and at time zero 220 μL of drug solution (stock A) was added. After 7 min of incubation, a 200 μL sample was taken, 60 μL of diluted COMPOUND B solution (stock B) was added and continued as described for the 1st experiment.

[3] = Stability of COMPOUND A in human intestinal fluids, Procedure D (in solution), stimulated; conditions: stimulated intestinal fluid
Experimental: Procedure D (COMPOUND A and COMPOUND B in Solution):
Stimulated Intestinal Fluids: the fluids from 3 different subjects were collected after fasting overnight with a nasojejunal tube and pooled. For the stimulation, twenty minutes before the beginning of the collection, volunteers were provided with chewing-gums and were asked to chew over a 15 minutes period, maintaining the taste by replacing the sticks of gum approximately every 2 minutes.
5 mg of thioisobutyric acid S-(2-{[1-(2-ethyl-butyl)-cyclohexanecarbonyl]-amino}-phenyl)ester (COMPOUND A) were dissolved in 50 μL ethanol and 950 μL mixed micelles solution containing Soybean lecithin/Sodium glycocholate (158/97 mg/mL) in water were added.
3 mg of 1-(3-hexyl-4-oxo-oxetan-2-yl)tridecan-2-yl 2-formyl-amino-4-methyl-pentanoate (COMPOUND B) were dissolved in 1 mL of ethanol. 100 μL of this solution was diluted with 900 μL of FeSSIF concentrate (10×).
100 μL of drug solution (stock D) were mixed with 100 μL of esterase inhibitor solution (stock E) and 800 μL of pro-FaSSIF were added.
100 μL of premix (stock F) were mixed with 200 μL of drug solution (stock A).
200 μL of premix (stock F) were mixed with 100 μL of drug solution (stock A). 315 μL of intestinal fluids (fasted and stimulated) were pre-heated at 37° C. for about 5 min. At time zero, 35 μL of premix solutions were added, i.e. either stock A, stock G, stock H or stock F, to obtain 50 μg/mL of COMPOUND A and final concentrations of COMPOUND B of 0, 1, 2 or 3 μg/mL. The samples were incubated at 37° C. while gently stirring. The reaction was stopped after 2 min or after 10 min by dilution of 1 part of the reaction mixture with 3 parts of isopropanol and the resulting mixture was centrifuged for 5 min at 5′000 rpm. The supernatant was analyzed by HPLC.

Concentration of COMPOUND A ([1]; +100 μg/mL COMPOUND B, 5 min): 48.2 µg/mL | Concentration of COMPOUND A ([1]; +100 μg/mL COMPOUND B, 10 min): 48.2 µg/mL | Concentration of COMPOUND A ([1]; +100 μg/mL COMPOUND B, 15 min): 48.2 µg/mL | Concentration of COMPOUND A ([1]; +100 μg/mL COMPOUND B, 20 min): 48.0 µg/mL | Concentration of COMPOUND A ([1]; +100 μg/mL COMPOUND B, 30 min): 48.3 µg/mL | Concentration of COMPOUND A ([1]; +100 μg/mL COMPOUND B, 60 min): 40.1 µg/mL | Concentration of COMPOUND A ([1]; time 0 min (column +100 μg/mL COMPOUND B), theoretical 50 μg/mL): 46.9 µg/mL | Concentration of COMPOUND A ([1]; w/o COMPOUND B, 5 min): 27.2 µg/mL | Concentration of COMPOUND A ([1]; w/o COMPOUND B, 10 min): 14.7 µg/mL | Concentration of COMPOUND A ([1]; w/o COMPOUND B, 15 min): 7.3 µg/mL | Concentration of COMPOUND A ([1]; w/o COMPOUND B, 20 min): 4.1 µg/mL | Concentration of COMPOUND A ([1]; w/o COMPOUND B, 30 min): <0.1 µg/mL | Concentration of COMPOUND A ([1]; w/o COMPOUND B, 60 min): <0.1 µg/mL | Concentration of COMPOUND A ([2]; +3 μg/mL COMPOUND B at T = 5 min, time 0 min): 45.3 µg/mL | Concentration of COMPOUND A ([2]; +3 μg/mL COMPOUND B at T = 5 min, time 5 min): 41.5 µg/mL | Concentration of COMPOUND A ([2]; +3 μg/mL COMPOUND B at T = 5 min, time 10 min): 39.1 µg/mL | Concentration of COMPOUND A ([2]; +3 μg/mL COMPOUND B at T = 5 min, time 15 min): 39.3 µg/mL | Concentration of COMPOUND A ([2]; +3 μg/mL COMPOUND B at T = 5 min, time 20 min): 39.1 µg/mL | Concentration of COMPOUND A ([2]; +3 μg/mL COMPOUND B at T = 5 min, time 25 min): 39.3 µg/mL | Concentration of COMPOUND A ([2]; +3 μg/mL COMPOUND B at T = 5 min, time 30 min): 39.3 µg/mL | Concentration of COMPOUND A ([2]; +3 μg/mL COMPOUND B at T = 7 min, time 0 min): 45.3 µg/mL | Concentration of COMPOUND A ([2]; +3 μg/mL COMPOUND B at T = 7 min, time 5 min): 40.4 µg/mL | Concentration of COMPOUND A ([2]; +3 μg/mL COMPOUND B at T = 7 min, time 10 min): 38.4 µg/mL | Concentration of COMPOUND A ([2]; +3 μg/mL COMPOUND B at T = 7 min, time 15 min): 38.2 µg/mL | Concentration of COMPOUND A ([2]; +3 μg/mL COMPOUND B at T = 7 min, time 20 min): 37.9 µg/mL | Concentration of COMPOUND A ([2]; +3 μg/mL COMPOUND B at T = 7 min, time 25 min): 37.8 µg/mL | Concentration of COMPOUND A ([2]; +3 μg/mL COMPOUND B at T = 7 min, time 30 min): 37.9 µg/mL | Concentration of COMPOUND A ([3]; COMPOUND B 0 μg/mL, 2 min, theoretical 50 μg/mL): 0.48 µg/mL | Concentration of COMPOUND A ([3]; COMPOUND B 0 μg/mL, 10 min): 0.48 µg/mL | Concentration of COMPOUND A ([3]; COMPOUND B 1 μg/mL, 2 min): 26.06 µg/mL | Concentration of COMPOUND A ([3]; COMPOUND B 1 μg/mL, 10 min): 2.76 µg/mL | Concentration of COMPOUND A ([3]; COMPOUND B 2 μg/mL, 2 min): 38.92 µg/mL | Concentration of COMPOUND A ([3]; COMPOUND B 2 μg/mL, 10 min): 24.93 µg/mL | Concentration of COMPOUND A ([3]; COMPOUND B 3 μg/mL, 2 min): 46.91 µg/mL | Concentration of COMPOUND A ([3]; COMPOUND B 3 μg/mL, 10 min): 40.48 µg/mL
Structure (SMILES): CCC(CC)CC1(C(=O)Nc2ccccc2SC(=O)C(C)C)CCCCC1 [COMPOUND A, thioisobutyric acid S-(2-{[1-(2-ethyl-butyl)-cyclohexanecarbonyl]-amino}-phenyl)ester]
